Key:
SCLC = test: Phase 2 trial of lurbinectedin monotherapy in SCLC: antitumor activity (ORR, DOR, PFS, OS; RECIST v1.1); type: in vivo, human
Protocol: A clinical study of lurbinectedin monotherapy for patients collectively afflicted with SCLC who have refractory or resistant disease, as defined herein, was carried out. In this clinical single-arm, multi-center, open-label, phase 2 trail, a cohort of 105 patients, who had measurable disease, including patients whose SCLC was unresponsive to first-line platinum-containing chemotherapy (cisplatin, carboplatin or oxaliplatin) (refractory) and patients whose SCLC recurred within or equal to 90 days after cessation of first-line therapy (resistant), were treated with lurbinectedin at a dosage of 3.2 mg/m^2 given intravenously over a period of 1 hour every 21 days. Lurbinectedin was provided as a sterile isotonic aqueous solution for IV infusion as described below.
Starting dose was 3.2 mg/m^2. Dose was capped at body surface area of […] (e.g. dose not allowed to exceed 6.4 mg). Patients received lurbinectedin i.v. as a one-hour infusion on Day 1 every three weeks until disease progression or unacceptable toxicity. Three weeks was defined as one treatment cycle.
The primary objective of this study was to assess the antitumor activity of lurbinectedin in terms of overall response rate (ORR) as primary endpoint and supported by duration of response (DOR) as secondary endpoint. ORR was assessed using RECIST v1.1. on a set of measurable lesions identified at baseline as target lesions or as non-target lesions (if any), and followed until disease progression (PD) by an appropriate method.
Radiological tumor assessment (CT scan or MRI) was performed at baseline, and every 6 weeks from the onset of the study treatment until cycle 6 or evidence of PD, and every 9 weeks thereafter. If an objective response was observed, according to RECIST v1.1., it had to be confirmed by the same method at least four weeks after the date of the first documentation of response.
ORR was defined as the percentage of evaluable patients with a confirmed response, either complete (CR) or partial response (PR), from the start of treatment to the date of progression or the start of a subsequent therapy or end of patients follow-up according to RECIST v1.1. DOR was calculated […], recurrence, or death due to any cause in the responder patients. The date of response, the date of radiological or clinical PD, according to the investigator assessment and the independent assessment by an independent review committee (IRC), and the date of death was registered and documented, as appropriate. The IRC determined the patient's best response and assigned the date of first documentation of response and progression/censoring according to RECIST v1.1.
Counts and percentages, with their corresponding exact 95% confidence intervals were calculated for the binominal endpoints (i.e. ORR, clinical benefit). Time-to-event variables (OS, PFS, and DOR) and their set time estimates (i.e. PFS4/6 and OS6/12) were analyzed according to Kaplan-Meier method. The evaluation of the efficacy endpoints evaluated by IA and IRC were analyzed and compared.

[1] = Phase 2 trial of lurbinectedin monotherapy: plasma pharmacokinetics; type: in vivo; conditions: human, intravenous, 3.2 mg/m^2 as 1-hour infusion
Protocol: The plasma PK of lurbinectedin was evaluated during Cycles 1 and 2 in all treated patients. The sampling schedule is shown in Table 15 and Table 16, respectively.
PK analysis of plasma-concentration-time data of lurbinectedin was performed using non-linear mixed-effects modeling and/or non-compartment analysis.

advanced solid tumors = test: Lurbinectedin plus irinotecan trial: efficacy per tumor type (RECIST v1.1, PFS, OS); type: in vivo, human; conditions: all doses
Excerpt: Secondary outcome measures included safety evaluation, peak plasma concentration (Cmax), area-under-the plasma concentration versus time curve (AUC), volume of distribution based on the terminal half-life (Vz), volume of distribution at steady state (Vss), clearance (CL), half-life (t½), evaluation of antitumor response (RECIST v1.1, start of treatment until PD, other antitumor therapy, death or until 12 months after the inclusion of the last evaluable patient in the study (end of study), whichever occurs first), progression-free survival (from the date of first infusion of study treatment to the date of progression or death or until 12 months after end of study, whichever occurs first), and overall survival (from the date of first infusion to study treatment to the date or death or until 12 months after end of study, whichever occurs first).
Encouraging activity has been observed in patients with SOLO, including some cases as third line treatment. Signals of activity were also observed in endometrial carcinoma and soft tissue sarcoma (STS) and glioblastoma (GBM). Consequently, a Phase II expansion at the RD to further explore efficacy and safety in SOLO, GBM, STS, and endometrial carcinoma. A total of […] patients were treated at the RD, including n=15 SOLO, n=11 endometrial cancer, n=10 STS, and n=20 GBM patients.

[2] = chemotherapy-free interval less than 90 days (resistant)

With `COc1ccc2[nH]c3c(c2c1)CCN[C@]31CS[C@@H]2c3c(OC(C)=O)c(C)c4c(c3[C@H](COC1=O)N1[C@@H]2[C@H]2c3c(cc(C)c(OC)c3O)C[C@@H]([C@@H]1O)N2C)OCO4` [lurbinectedin, Lurbinectedin] the “Median overall survival of patients with initial objective response (post-hoc)” value (SCLC; 37 responders, overall population) was 12.6 months, the “Duration of response, median” value (SCLC; IRC assessment, overall) was 5.1 months and the “Overall response rate (CR + PR)” value (SCLC; Investigator assessment, resistant disease (CTFI <90 days, n = 45)) was 22.2%. The “Patients alive at 1 year after the first dose” value (SCLC; chemotherapy-free interval less than 90 days (n = 45)) was 16%, the Median overall survival (SCLC; [2]) was 5.0 months and the Median progression-free survival (SCLC; [2]) was 2.6 months. The “Disease progression with new lesions in the CNS” value (SCLC; of 94 patients who discontinued lurbinectedin) was 9%, the “Median overall survival of patients with initial objective response (post-hoc)” value (SCLC; responders with resistant disease) was 10.9 months and the AUC(0-inf) [1] was about 551 ng·h/mL. The Cmax ([1]; read-out: Mean total plasma Cmax) was about 107 ng/mL, the “CBR (ORR + SD >4 mo)” value (advanced solid tumors; Endometrial (n = 10 evaluable)) was 60% and the “DCR (ORR + SD)” value (advanced solid tumors; Endometrial (n = 10 evaluable)) was 100%. The “Median DoR” value (advanced solid tumors; Endometrial (n = 10 evaluable)) was 4.6 mo, the “Median PFS” value (advanced solid tumors; Endometrial (n = 10 evaluable)) was 7.1 mo and the “ORR* (PR)” value (advanced solid tumors; Endometrial (n = 10 evaluable)) was 3 (30) n(%). The “PFS rate at 6 mo” value (advanced solid tumors; Endometrial (n = 10 evaluable)) was 50%, the “CBR (ORR + SD >4 mo)” value (advanced solid tumors; GBM (n = 16 evaluable)) was 18.8% and the “DCR (ORR + SD)” value (advanced solid tumors; GBM (n = 16 evaluable)) was 43.8%. For the same compound, the “Median PFS” value (advanced solid tumors; GBM (n = 16 evaluable)) was 1.4 mo, the “ORR* (PR)” value (advanced solid tumors; GBM (n = 16 evaluable)) was 1 (6.3) n(%) and the “PFS rate at 6 mo” value (advanced solid tumors; GBM (n = 16 evaluable)) was 7.1%. The “CBR (ORR + SD >4 mo)” value (advanced solid tumors; SCLC (n = 13 evaluable)) was 76.9%, the “DCR (ORR + SD)” value (advanced solid tumors; SCLC (n = 13 evaluable)) was 84.6% and the “Median DoR” value (advanced solid tumors; SCLC (n = 13 evaluable)) was 4.6 mo. The “Median PFS” value (advanced solid tumors; SCLC (n = 13 evaluable)) was 4.3 mo, the “ORR* (PR)” value (advanced solid tumors; SCLC (n = 13 evaluable)) was 9 (69.2) n(%) and the “PFS rate at 6 mo” value (advanced solid tumors; SCLC (n = 13 evaluable)) was 36.3%. The “CBR (ORR + SD >4 mo)” value (advanced solid tumors; STS (n = 10 evaluable)) was 40%, the “DCR (ORR + SD)” value (advanced solid tumors; STS (n = 10 evaluable)) was 80% and the “Median PFS” value (advanced solid tumors; STS (n = 10 evaluable)) was 2.6 mo. The “ORR* (PR)” value (advanced solid tumors; STS (n = 10 evaluable)) was 0 n(%) and the “PFS rate at 6 mo” value (advanced solid tumors; STS (n = 10 evaluable)) was 33.8%.

From patent publication US12714706B2, “Methods of treating small cell lung cancer with lurbinectedin formulations” (PHARMA MAR, S.A., priority 2019, dated 2026)
